Data set [1] has as its system KRAS^G12C. Conditions: role: inhibitor, background statement, cited from earlier work.
Data set [2] in a line: Stability testing: dissolution (FaSSIF), Example 2. The format is physicochemical. Conditions: FaSSIF pH 6.50; all crystalline samples, first two timepoints of amorphous samples. As to the method: (§1) Stability testing of the three ASDs prepared in Example 1 was conducted over 2 months (T=0, 1 month and 2 months) using XRPD, TGA, DSC, PSD, and dissolution tests (FaSSIF and biorelevant media).
(§2) Stability Testing: ASD samples were stored in low density polyethylene (LPDE) bags placed in a heat-sealed aluminum foil pouch along with desiccant. Foil pouches were then placed into a stability chamber at 25 °C/60% RH and taken out for stability testing (XRPD, TGA, DSC PSD, dissolution and biorelevant dissolution) at specified timepoints.
Dissolution (FaSSIF): The dissolution properties of ASDs 1-3 and the control spray-dried sotorasib were assessed as described herein. 5 mg of amorphous sotorasib (control), 5 mg of crystalline sotorasib (control), and 20 mg of ASDs1-3 as listed in Table 1 were added to separate 20 mL vials of FaSSIF (pH 6.50) and samples were collected at 5, 15, 20, 30, 60, 120, 180 min timepoints. […] The mobile phases were A:Water with 0.1% trifluoroacetic acid and B:Acetonitile with 0.1% trifluoroacetic acid. The method was a reverse gradient of 5% B 95% A to 98% B 2% A over 15 minutes using a wavelength 254 nm for detection and quantification.

Data set [3] is described as follows: Stability testing: XRPD, Example 2. The format is physicochemical. As to the method: as §1, §2
X-Ray Powder Diffraction (XRPD) Analysis: XRPD data was obtained using a Panalytical PW3040-PRO diffractometer. Samples were scanned at room temperature (25 °C) in continuous mode from 3-45 degrees (2θ) with step size of 0.03 degrees at 45 kV and 40 mA with CuKα radiation (1.54 A). The incident beam path was equipped with a primary soller slit 0.04 rad and a divergence slit 0.38 mm, in a fixed slit mode. Samples were prepared on a low background sample holder and placed on a spinning stage with a rotation time of 4 sec.

Data set [4] can be described thus: Particle size distribution (laser diffraction), Example 1. The format is physicochemical. The conditions noted are these: Example 1, Table 1. The source says: Particle Size Distribution (PSD): Analysis of each of the samples was obtained using a Sympatec Helos laser diffraction analyzer. The results of the particle size analysis are shown in Table 1 (D10, D50, and D90 values).

Data set [5] is described as follows: Stability testing: particle size distribution (PSD), Example 2. The format is physicochemical. As to the method:
as §1, §2
Particle Size Distribution (PSD): Analysis of each of the samples was obtained using a Sympatec Helos laser diffraction analyzer. The results are shown below (D10, D50, and D90 values).

Data set [6] is described as follows: Stability testing: Thermal Gravimetric analysis (TGA), Example 2. It is filed as physicochemical. As to the method:
as §1, §2
Thermal Gravimetric analysis (TGA): TGA was performed to evaluate presence for residual solvent and any thermal transitions which may result in weight loss. TGA was performed on a TA Instruments Discovery 550 Series analyzer at 5 °C/min from ambient temperature to 200 °C in a platinum pan under dry nitrogen at 25 ml/min. Sample size was ~2-8 mg.

Data set [7] can be described thus: Stability testing: DSC, Tg, Example 2. It is filed as physicochemical. As to the method:
as §1, §2
Differential Scanning Calorimetry (DSC) Analysis: DSC data is collected using a TA Instruments Q2500 DSC. Approximately, 2-6 mg of the sample was placed in a Tzero aluminum pan and sealed with Tzero lid. Method Log consist of equilibrating to −20 °C, holding Isothermal for 1.00 min, Ramping 10.00 °C/min to 160.0 °C, holding isothermal for 1.00 min, bringing down to Ramp of 10.00 °C/min to −20.00 °C, holding isothermal for 1.00 min, ramping 10.00 °C/min to 200 °C, marking end of cycle. Conditions were done under a nitrogen purge of about 50 mL/min.

This is an account of results in patent US20260345615A1, “COMPOSITIONS COMPRISING SOTORASIB” (AMGEN INC., priority 2023, published 2026).

Molecules are shown by their SMILES.

In the case of `C=CC(=O)N1CCN(c2nc(=O)n(-c3c(C)ccnc3C(C)C)c3nc(-c4c(O)cccc4F)c(F)cc23)[C@@H](C)C1` (atropisomer, axis not shown) [Sotorasib], the “activity at the target protein, atropisomers” value in data set [1] ((M)- v. (P)-configuration) is “more active at the target protein than the (P)-configuration”. The “inhibition of KRAS^G12C” value in data set [1] is “specifically and irreversibly inhibits”.

Consider `C=CC(=O)N1CCN(c2nc(=O)n(-c3c(C)ccnc3C(C)C)c3nc(-c4c(O)cccc4F)c(F)cc23)[C@@H](C)C1` [crystalline sotorasib], for which the “solubility (samples not diluted)” value in data set [2] was “low solubility”.

Turning to `C=CC(=O)N1CCN(c2nc(=O)n(-c3c(C)ccnc3C(C)C)c3nc(-c4c(O)cccc4F)c(F)cc23)[C@@H](C)C1` [sotorasib amorphous], the XRPD result was “amorphous” in data set [3] (T = 0); “amorphous” in data set [3] (T = 1 month, 25 °C/60% RH); “amorphous” in data set [3] (T = 2 months, 25 °C/60% RH). The compound further gave a D10 in data set [4] of less than 1.0 μm. The compound also showed a D50 in data set [4] of less than 4.0 μm. For the same compound, the D90 in data set [4] is recorded as less than 16 μm. For the same compound, the “PSD result - D10” value in data set [5] (T = 0) was found to be 0.8 μm; in data set [5] (T = 1 month, 25 °C/60% RH) it was 0.8 μm; in data set [5] (T = 2 months, 25 °C/60% RH) it was 0.8 μm. In addition, the “PSD result - D50” value is reported as 3.6 μm in data set [5] (T = 0); 4.2 μm in data set [5] (T = 1 month, 25 °C/60% RH); 3.8 μm in data set [5] (T = 2 months, 25 °C/60% RH). The “PSD result - D90” value came to 13.4 μm in data set [5] (T = 0); 14.4 μm in data set [5] (T = 1 month, 25 °C/60% RH); 13.5 μm in data set [5] (T = 2 months, 25 °C/60% RH). Also, the “TGA result (weight change)” value in data set [6] (T = 0) was less than 1%; in data set [6] (T = 1 month, 25 °C/60% RH) it was less than 1%; in data set [6] (T = 2 months, 25 °C/60% RH), less than 1%. Moreover, the “DSC result - Tg” value in data set [7] (T = 0, n1) is “n1: 147.7 °C”; in data set [7] (T = 0, n2), “n2: 146.9 °C”; in data set [7] (T = 1 month, n1, 25 °C/60% RH), “n1: 148.4 °C”; in data set [7] (T = 1 month, n2, 25 °C/60% RH), “n2: 148.3 °C”; in data set [7] (T = 2 months, n1, 25 °C/60% RH) it was “n1: 149.1 °C”; in data set [7] (T = 2 months, n2, 25 °C/60% RH) it was “n2: 148.6 °C”.
